# Results from article PMC3409115, “Diverse Inhibitor Chemotypes Targeting Trypanosoma cruzi CYP51” (PLoS Neglected Tropical Diseases, 2012).
# Like-named read-outs stand apart in the source and are kept apart here.
# Legend:
# T. cruzi CYP51 [1] = target: T1, T. cruzi CYP51 (Trypanosoma cruzi, UniProt Q7Z1V1); assay: Low throughput UV-vis binding assay; conditions: UV-vis titration, 0.5 µM CYP51, quadratic tight-binding equation; lower limit of method ~5 nM; read-out: KD
# T1 construct: had the first 21 residues upstream of K22 replaced with the fragment MAKKKKK; His6 (C); made in house
# Description: Hit validation in the low throughput UV-vis binding assay was performed according to a previously published but somewhat modified protocol. UV-vis absorption spectra were recorded on a Cary scanning spectrophotometer (Varian) in the 1-cm path length quartz cuvette at 23°C in 100 mM potassium phosphate buffer, pH 7.5, containing 10% glycerol, with CYP51 concentration of 0.5 µM. Compound solutions used for titration were prepared in DMSO at 100 µM and added in 2-µl aliquots to each 3 ml sample using a P2 pipetman (Gilson). Binding affinity of hits was estimated using the quadratic tight-binding equation [27]: […]
# where Aobs is the absorption shift determined at any ligand concentration; Amax is the maximal absorption shift obtained at saturation; KD is dissociation constant for the inhibitor-enzyme complex; S is the ligand concentration; Et is the total enzyme concentration.
# [2] = test system: T. cruzi-infected skeletal myoblasts (intracellular amastigotes); assay: Hit cross-validation in T. cruzi-infected mammalian cells (image-based assay); type: cell-based, Trypanosoma cruzi
# Description: Bovine embryo skeletal muscle cells or mouse C2C12 myoblasts (ATCC#CRL-1772) used in the cross-validation assay, were cultivated respectively in RPMI 1640 medium supplemented with 5% horse serum and Dulbecco's Modified Eagle's Medium H-21 containing 4.5 g/l glucose (DMEM H-21) (Cell Culture Facility, UCSF), supplemented with 5% fetal bovine serum (FBS) (Sigma Chemical Co., St. Louis, MO, USA), 25 mM HEPES, 2 mM L-glutamine, 100 U/ml penicillin, 100 µg/ml streptomycin. T. cruzi CAI-72 trypomastigotes were obtained from supernatant of infected cultures 4 to 7 days post-infection. Cultures were maintained at 37°C in an atmosphere of 5% CO2. To harvest parasites, the supernatant of infected cultures containing released trypomastigotes was collected and centrifuged at 600 rpm for 5 min to remove cell debris; the pellet was then discarded and the trypomastigotes remaining in the media were concentrated by spinning the culture tubes at 3300 rpm for 15 minutes. The parasite pellet was re-suspended in 2–5 ml of fresh media. Trypomastigote concentration was determined using a Neubauer hemocytometer.
# (§1) Compound cross-validation in T. cruzi infected skeletal myoblasts (bovine embryo skeletal muscle or C2C12 lineage) was performed according to the protocol adapted from Engel and co-authors. Compounds stored as 10 mM stocks in DMSO were freshly diluted immediately prior to use. […] To prepare plates for the assay, skeletal myoblasts cultured in […] flasks were washed once with phosphate buffered saline (PBS) and then incubated with 0.25% trypsin in PBS for 1–3 minutes for detachment. The trypsin solution was removed and myoblasts were released from the flask bottom. Fresh medium was added and cell concentration was determined using a Neubauer hemocytometer. Myoblasts in 50 µl of culture medium were transferred to the clear-bottom wells of black 96-well plates (Greiner Bio-One, #655090) at a density of 1500 cells/well and infected with 50 µl trypomastigote culture at 7500 parasites/well (1∶5 ratio). The cells were allowed to adhere and spread for 24 h in the incubator before the media was removed and 100 µl of fresh medium containing 0, 0.04, 0.12, 0.37, 1.10, 3.30 or 10 µM of test compound was added to each well, followed by 72 h incubation at 37°C in an atmosphere of 5% CO2. Posaconazole was used as a positive control at the same concentrations as the test compounds. The cells were then fixed by adding 100 µl/well of 8% formaldehyde in PBS, resulting in a 4% working concentration of formaldehyde. To stain the nucleus of the host cell and the nucleus and kinetoplast of parasites, cell membranes were first permeabilized by washing once with 100 µl of 0.1% Triton X-100 in PBS, then treated for 1 h with 0.2 µg/ml of the fluorescent DNA dye, 4,6-diamidino-2-phenylindole (DAPI), followed by one wash with PBS. The fixed plates were kept at 4°C and protected from light until images were acquired.
# (§2) Plates were allowed to equilibrate to room temperature and images were acquired by the IN Cell Analyzer 2000 (GE Healthcare) with a 20× objective, 5 fields per well, with 350/50 nm and 460/40 nm fluorescent excitation and emission filters. In the absence of drug cytotoxicity, at least 800 cells were imaged and counted per well. The images were processed and analyzed by IN Cell Analyzer Developer 1.6 software. The size parameters used to segment host and parasite organelles were 125 µm^2 for host nucleus, and 1–2 µm^2 for parasite nucleus/kinetoplast. Since DAPI also strongly stains host heterochromatin regions that display as shapes resembling parasites ( Figure 3 ), particles co-localized to host nuclei were excluded from quantification, while parasite aggregates near the host nucleus were counted as infected cells.
# [3] = test system: host cell (skeletal myoblasts, bovine embryo skeletal muscle or C2C12); assay: Host cell toxicity in the cross-validation assay; type: cell-based; conditions: host cells in cross-validation assay, up to 10 µM
# Description: as §1
# as §2, with “cells. Numbers of host cells and intracellular amastigotes were determined based on host cell and parasite nucleus and parasite kinetoplast quantification, providing a measure of growth inhibition during the first 72 h of post-infection treatment compared to untreated controls.” for “cells.”
# ^aToxicity was assessed as the highest percentage of host cell growth inhibition caused by compound treatment. Scores are assigned as 1-<20%; 2-21-30%; 3- 31-40%; 4-41-50% and 5->50% growth inhibition.
# T. cruzi CYP51 [4] = target: T1, T. cruzi CYP51; assay: HTS spectral-mode binding screen, type II difference spectra scored 0-5
# [5] = Trypanosoma cruzi, Myoblast, 72 h, T. cruzi-infected myoblasts, 72 h treatment, repurchased compound, read-out: EC50 averaged from two independent cross-validation assays for individually repurchased hits
# [6] = T. cruzi-infected myoblasts, 72 h treatment, read-out: EC50 against T. cruzi parasites in HTS assay used to rank order the hits
# [7] = Trypanosoma cruzi, Myoblast, 72 h, T. cruzi-infected myoblasts, 72 h treatment, read-out: EC50 against T. cruzi parasites in HTS assay used to rank order the hits
# [8] = spectral mode, four serial dilutions 2 µM to 12.5 µM, 2 µM CYP51
# [9] = Trypanosoma cruzi, Myoblast, 72 h, read-out: EC50 against T. cruzi parasites in HTS assay used to rank order the hits
# T1 sequence (Q7Z1V1 15-481, looked up, natural form): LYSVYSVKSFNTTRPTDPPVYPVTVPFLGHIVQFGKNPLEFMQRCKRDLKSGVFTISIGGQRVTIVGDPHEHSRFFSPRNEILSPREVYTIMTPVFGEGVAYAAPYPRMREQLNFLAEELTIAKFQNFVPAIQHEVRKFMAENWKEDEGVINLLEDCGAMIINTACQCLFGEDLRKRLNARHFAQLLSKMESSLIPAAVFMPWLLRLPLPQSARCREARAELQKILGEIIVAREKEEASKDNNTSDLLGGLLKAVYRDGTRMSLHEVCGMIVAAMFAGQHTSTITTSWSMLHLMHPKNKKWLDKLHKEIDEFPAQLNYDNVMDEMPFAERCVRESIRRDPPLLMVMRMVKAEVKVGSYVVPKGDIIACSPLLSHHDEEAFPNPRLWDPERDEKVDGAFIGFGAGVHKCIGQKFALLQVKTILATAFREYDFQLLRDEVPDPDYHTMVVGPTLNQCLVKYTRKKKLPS
SMILES,Toxicity score (highest percentage of host cell growth inhibition) [3],HTS binding score (T. cruzi CYP51 [4]; [8]),"EC50 [2, 9]",also measured
Brc1ccc(OCCCCCCn2ccnc2)cc1 [Compound 1a],,,,"Kd (T. cruzi CYP51 [1]): ≤ 0.005 µM; EC50 [2, 5]: 0.93 ± 0.1 µM"
Brc1ccccc1OCCCCn1ccnc1 [Compound 1b],,,,"Kd (T. cruzi CYP51 [1]): 0.066 ± 0.029 µM; EC50 [2, 5]: 4.58 ± 2 µM"
COc1ccc(S(=O)(=O)NC(C)c2ccc(-n3ccnc3)cc2)c2ccccc12 (stereo not shown) [Compound 3],2 (2-21-30%),,,"Kd (T. cruzi CYP51 [1]): ≤ 0.005 µM; EC50 [2, 6]: 0.484 µM; EC50 [2, 5]: 0.2 µM; EC50 [2, 7]: 0.48 µM"
Clc1ccc(OCCCCCCn2ccnc2)cc1 [Compound 11],2 (2-21-30%),,,"Kd (T. cruzi CYP51 [1]): 0.065 ± 0.015 µM; EC50 [2, 6]: 0.948 µM; EC50 [2, 5]: 0.76 µM; EC50 [2, 7]: 0.95 µM"
Cc1ccc(CNC(=O)C(=O)NCC(c2cccnc2)N2CCN(Cc3ccccc3)CC2)cc1 (stereo not shown) [Compound 14],4 (4-41-50%),2,1.67 µM,
COc1ccc(CNc2nc3ccccc3c3nc(-c4ccncc4)nn23)cc1 [Compound 15],3 (3- 31-40%),5,1.93 µM,"EC50 ([2]; Trypanosoma cruzi, Myoblast, 72 h, read-out: EC50 averaged from two independent cross-validation assays for individually repurchased hits): 1.93 µM"
Brc1ccc(-c2csc(-c3ccncc3)n2)cc1 [Compound 18],1 (1-<20%),3,2.38 µM,
COC(=O)c1ccc(-c2ccncc2)s1 [Compound 21],2 (2-21-30%),4,2.74 µM,
Cc1ccc(NC(=O)c2sc3nc(-c4ccncc4)ccc3c2N)cc1Cl [Compound 22],2 (2-21-30%),2,2.86 µM,
OC(/C=C/c1cccc(C(F)(F)F)c1)(Cn1ccnc1)c1cccnc1 (stereo not shown) [Compound 23],1 (1-<20%),1,2.89 µM,
c1ccc(CC(NCc2ccncc2)c2ccccc2)cc1 (stereo not shown) [Compound 27],1 (1-<20%),5,4.82 µM,
CCOC(=O)C1=C(C)N(C)C(C)=C(C(=O)OCC)C1c1ccncc1 [Compound 29],1 (1-<20%),5,5.18 µM,
CC(C)=CCCC1=CCC2(COC(c3cccnc3)OC2)C(C)C1 (stereo not shown) [Compound 31],1 (1-<20%),2,6.39 µM,
O=C(c1ccc(Cl)cc1Cl)C(c1cccnc1)C(O)C(Cl)(Cl)Cl (stereo not shown) [Compound 34],2 (2-21-30%),5,6.87 µM,
c1ccc2c(c1)-c1ccccc1C2n1ccnc1 [Compound 36],3 (3- 31-40%),1,7.24 µM,
Cn1c(SCc2nc(-c3ccc(Cl)cc3)no2)nnc1-c1ccncc1 [Compound 40],1 (1-<20%),5,7.67 µM,
O=P(Nc1cccnc1)(Oc1ccccc1Cl)Oc1ccccc1Cl [Compound 41],1 (1-<20%),5,7.73 µM,
CCc1ccc(-c2cc3c(=O)n(CC(=O)NCc4cccnc4)nc(C)n3n2)cc1 [Compound 42],3 (3- 31-40%),2,7.75 µM,
Cc1ccc(OCCCn2ccnc2)c(C)c1 [Compound 45],3 (3- 31-40%),5,,"EC50 [2, 7]: 8.01 µM"
CN(C)C(C/N=C(\S)NCCc1ccccc1)c1cccnc1 (stereo not shown) [Compound 46],1 (1-<20%),1,8.18 µM,
OC(c1ccccc1)(c1ccccc1)c1c[nH]cn1 [Compound 47],2 (2-21-30%),3,8.22 µM,
N#C/C(=C\C=C\c1ccccc1)C(=O)NCc1cccnc1 [Compound 49],1 (1-<20%),3,8.26 µM,
CCCCNC(=O)c1cc(-c2ccncc2)nc2ccccc12 [Compound 50],4 (4-41-50%),5,8.4 µM,
CCOC(=O)C1=C(N)Oc2ccc3ccccc3c2C1c1cccnc1 (stereo not shown) [Compound 51],1 (1-<20%),2,,"HTS binding score (T. cruzi CYP51 [4]; type II difference spectra scored 0-5, second highest rated hit compound cluster): 2; EC50 [2, 7]: 8.58 µM"
COC(=O)C1=C(C)N(Cc2cccnc2)C(=O)/C1=C\c1ccccc1OCc1ccccc1 [Compound 53],1 (1-<20%),3,9.06 µM,
Cc1ccc(OCC(=O)ONC(=N)c2cccnc2)c(Br)c1 [Compound 54],1 (1-<20%),3,9.48 µM,
O=C(/C=C/c1cccs1)c1ccncc1 [Compound 56],3 (3- 31-40%),3,9.62 µM,
Nc1c(C(=O)NCCc2c[nH]c3ccccc23)sc2nc(-c3cccnc3)ccc12 [Compound 57],1 (1-<20%),2,9.74 µM,
